In patent US20230085307A1, “PYRIDAZINONE COMPOUND AND HERBICIDE” (NISSAN CHEMICAL CORPORATION, priority 2019, published 2023):

Assays:
late watergrass = test: Test Example 1: herbicidal activity, application before weed generation under submerged conditions (Table 16, symbol A); type: in vivo, late watergrass (Echinochloa oryzicola); conditions: amount of applied herbicide 320 g/ha
Procedure, shortened: (§1)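 Alluvial soil was flooded to 4 cm depth, weed seeds were sown mixed and 2.5-leaf rice seedlings were transplanted. On sowing day, the compound's emulsion, diluted in water to a set dose, was applied to the water surface. Plants grew at 25–30 °C and were scored 0–5 after three weeks.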

Japanese bulrush = test: Test Example 1: herbicidal activity, application before weed generation under submerged conditions (Table 16, symbol B); type: in vivo, Japanese bulrush (Schoenoplectus juncoides); conditions: amount of applied herbicide 320 g/ha
Procedure, shortened: as §1

oval-leafed pondweed = test: Test Example 1: herbicidal activity, application before weed generation under submerged conditions (Table 16, symbol C); type: in vivo, oval-leafed pondweed (Monochoria vaginalis); conditions: amount of applied herbicide 320 g/ha
Procedure, shortened: as §1

barnyard grass [1] = test: Test Example 3: herbicidal effect by foliage application, Wagner pot (Table 18, symbol H); type: in vivo, barnyard grass (Echinochloa crus-galli); conditions: 320 g/ha
Procedure, shortened: (§2)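 Plants were sown in alluvial soil held under 0.1–0.5 cm standing water and grown 14 days in a greenhouse at 25–30 °C. An emulsifiable formulation, water-diluted to the set dose, was then sprayed onto the foliage, and effects were scored three weeks later using previously defined criteria.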

Chinese sprangletop = test: Test Example 3: herbicidal effect by foliage application, Wagner pot (Table 18, symbol D); type: in vivo, chinese sprangletop (Leptochloa chinensis); conditions: 320 g/ha
Procedure, shortened: as §2

rice flat sedge = test: Test Example 3: herbicidal effect by foliage application, Wagner pot (Table 18, symbol E); type: in vivo, rice flat sedge (Cyperus iria); conditions: 320 g/ha
Procedure, shortened: as §2

southern crabgrass [2] = test: Test Example 4: herbicidal effect by soil treatment (Table 19, symbol F); type: in vivo, southern crabgrass (Digitaria ciliaris); conditions: amount of applied herbicide 320 g/ha
Procedure, shortened: (§3)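 Emulsion of test compound, water-diluted to predetermined amount, sprayed on soil after sowing (seed depth ~1.5 cm, sterilized diluvial soil). Greenhouse, 25–30° C. Effect graded at three weeks post-spray.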

green foxtail [3] = test: Test Example 4: herbicidal effect by soil treatment (Table 19, symbol G); type: in vivo, green foxtail (Setaria viridis); conditions: amount of applied herbicide 320 g/ha
Procedure, shortened: as §3

barnyard grass [4] = test: Test Example 4: herbicidal effect by soil treatment (Table 19, symbol H); type: in vivo, barnyard grass (Echinochloa crus-galli); conditions: amount of applied herbicide 320 g/ha
Procedure, shortened: as §3

wild oat [5] = test: Test Example 4: herbicidal effect by soil treatment (Table 19, symbol I); type: in vivo, wild oat (Avena fatua); conditions: amount of applied herbicide 320 g/ha
Procedure, shortened: as §3

blackgrass [6] = test: Test Example 4: herbicidal effect by soil treatment (Table 19, symbol J); type: in vivo, blackgrass (Alopecurus myosuroides); conditions: amount of applied herbicide 320 g/ha
Procedure, shortened: as §3

Italian ryegrass [7] = test: Test Example 4: herbicidal effect by soil treatment (Table 19, symbol K); type: in vivo, Italian ryegrass (Lolium multiflorum); conditions: amount of applied herbicide 320 g/ha
Procedure, shortened: as §3

windgrass [8] = test: Test Example 4: herbicidal effect by soil treatment (Table 19, symbol L); type: in vivo, windgrass (Apera spica-venti); conditions: amount of applied herbicide 320 g/ha
Procedure, shortened: as §3

velvetleaf [9] = test: Test Example 4: herbicidal effect by soil treatment (Table 19, symbol M); type: in vivo, velvetleaf (Abutilon theophrasti); conditions: amount of applied herbicide 320 g/ha
Procedure, shortened: as §3

redroot pigweed [10] = test: Test Example 4: herbicidal effect by soil treatment (Table 19, symbol N); type: in vivo, redroot pigweed (Amaranthus retroflexus); conditions: amount of applied herbicide 320 g/ha
Procedure, shortened: as §3

lambsquarters [11] = test: Test Example 4: herbicidal effect by soil treatment (Table 19, symbol O); type: in vivo, lambsquarters (Chenopodium album); conditions: amount of applied herbicide 320 g/ha
Procedure, shortened: as §3

chickweed [12] = test: Test Example 4: herbicidal effect by soil treatment (Table 19, symbol P); type: in vivo, common chickweed (Stellaria media); conditions: amount of applied herbicide 320 g/ha
Procedure, shortened: as §3

persian speedwell [13] = test: Test Example 4: herbicidal effect by soil treatment (Table 19, symbol R); type: in vivo, Persian speedwell (Veronica persica); conditions: amount of applied herbicide 320 g/ha
Procedure, shortened: as §3

southern crabgrass [14] = test: Test Example 5: herbicidal effect by foliage application, plastic box (Table 20, symbol F); type: in vivo, southern crabgrass (Digitaria ciliaris); conditions: 320 g/ha
Procedure, shortened: (§4)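 Post-emergence foliar test in sterilized diluvial soil. Compound applied as water-diluted emulsion at a predetermined rate to 14-day-old plants; evaluation at three weeks.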

green foxtail [15] = test: Test Example 5: herbicidal effect by foliage application, plastic box (Table 20, symbol G); type: in vivo, green foxtail (Setaria viridis); conditions: 320 g/ha
Procedure, shortened: as §4

barnyard grass [16] = test: Test Example 5: herbicidal effect by foliage application, plastic box (Table 20, symbol H); type: in vivo, barnyard grass (Echinochloa crus-galli); conditions: 320 g/ha
Procedure, shortened: as §4

wild oat [17] = test: Test Example 5: herbicidal effect by foliage application, plastic box (Table 20, symbol I); type: in vivo, wild oat (Avena fatua); conditions: 320 g/ha
Procedure, shortened: as §4

blackgrass [18] = test: Test Example 5: herbicidal effect by foliage application, plastic box (Table 20, symbol J); type: in vivo, blackgrass (Alopecurus myosuroides); conditions: 320 g/ha
Procedure, shortened: as §4

Italian ryegrass [19] = test: Test Example 5: herbicidal effect by foliage application, plastic box (Table 20, symbol K); type: in vivo, Italian ryegrass (Lolium multiflorum); conditions: 320 g/ha
Procedure, shortened: as §4

windgrass [20] = test: Test Example 5: herbicidal effect by foliage application, plastic box (Table 20, symbol L); type: in vivo, windgrass (Apera spica-venti); conditions: 320 g/ha
Procedure, shortened: as §4

velvetleaf [21] = test: Test Example 5: herbicidal effect by foliage application, plastic box (Table 20, symbol M); type: in vivo, velvetleaf (Abutilon theophrasti); conditions: 320 g/ha
Procedure, shortened: as §4

redroot pigweed [22] = test: Test Example 5: herbicidal effect by foliage application, plastic box (Table 20, symbol N); type: in vivo, redroot pigweed (Amaranthus retroflexus); conditions: 320 g/ha
Procedure, shortened: as §4

lambsquarters [23] = test: Test Example 5: herbicidal effect by foliage application, plastic box (Table 20, symbol O); type: in vivo, lambsquarters (Chenopodium album); conditions: 320 g/ha
Procedure, shortened: as §4

chickweed [24] = test: Test Example 5: herbicidal effect by foliage application, plastic box (Table 20, symbol P); type: in vivo, common chickweed (Stellaria media); conditions: 320 g/ha
Procedure, shortened: as §4

persian speedwell [25] = test: Test Example 5: herbicidal effect by foliage application, plastic box (Table 20, symbol R); type: in vivo, Persian speedwell (Veronica persica); conditions: 320 g/ha
Procedure, shortened: as §4

[26] = foliage application, three weeks after application
[27] = foliage application after 14-day growth, evaluated three weeks after application

Compound	Herbicidal effect, A: late watergrass (late watergrass)	Herbicidal effect, B: Japanese bulrush (Japanese bulrush)	Herbicidal effect, C: oval-leafed pondweed (oval-leafed pondweed)	herbicidal effect on barnyard grass (H) (barnyard grass [1])	herbicidal effect on Chinese sprangletop (D) (Chinese sprangletop)	herbicidal effect on rice flat sedge (E) (rice flat sedge)	Herbicidal effect by soil treatment, F: southern crabgrass (southern crabgrass [2])	Herbicidal effect by soil treatment, G: green foxtail (green foxtail [3])	Herbicidal effect by soil treatment, H: barnyard grass (barnyard grass [4])	Herbicidal effect by soil treatment, I: wild oat (wild oat [5])	Herbicidal effect by soil treatment, J: blackgrass (blackgrass [6])	Herbicidal effect by soil treatment, K: Italian ryegrass (Italian ryegrass [7])	Herbicidal effect by soil treatment, L: windgrass (windgrass [8])	Herbicidal effect by soil treatment, M: velvetleaf (velvetleaf [9])	Herbicidal effect by soil treatment, N: redroot pigweed (redroot pigweed [10])	Herbicidal effect by soil treatment, O: lambsquarters (lambsquarters [11])	Herbicidal effect by soil treatment, P: chickweed (chickweed [12])	Herbicidal effect by soil treatment, R: persian speedwell (persian speedwell [13])	further results
COCc1ccc2c(-c3c(O)c(C)nn(C)c3=O)c(-c3ccccc3OC)sc2c1 [3-137]	3 (Herbicidal rate of 40% or more and less than 70%)	0 (Herbicidal rate of 5% or less (almost no effect))	0 (Herbicidal rate of 5% or less (almost no effect))	3 (Herbicidal rate of 40% or more and less than 70%)	5 (Herbicidal rate of 90% or more (almost completely withered))	5 (Herbicidal rate of 90% or more (almost completely withered))	0 (Herbicidal rate of 5% or less (almost no effect))	1 (Herbicidal rate of 5% or more and less than 20%)	5 (Herbicidal rate of 90% or more (almost completely withered))	1 (Herbicidal rate of 5% or more and less than 20%)	0 (Herbicidal rate of 5% or less (almost no effect))	1 (Herbicidal rate of 5% or more and less than 20%)	0 (Herbicidal rate of 5% or less (almost no effect))	0 (Herbicidal rate of 5% or less (almost no effect))	0 (Herbicidal rate of 5% or less (almost no effect))	0 (Herbicidal rate of 5% or less (almost no effect))	5 (Herbicidal rate of 90% or more (almost completely withered))	4 (Herbicidal rate of 70% or more and less than 90%)	F: southern crabgrass, herbicidal effect grade (southern crabgrass [14]; [26]): 5 (Herbicidal rate of 90% or more (almost completely withered)); G: green foxtail, herbicidal effect grade (green foxtail [15]; [26]): 5 (Herbicidal rate of 90% or more (almost completely withered)); H: barnyard grass, herbicidal effect grade (barnyard grass [16]; [26]): 3 (Herbicidal rate of 40% or more and less than 70%); I: wild oat, herbicidal effect grade (wild oat [17]; [26]): 4 (Herbicidal rate of 70% or more and less than 90%); J: blackgrass, herbicidal effect grade (blackgrass [18]; [26]): 4 (Herbicidal rate of 70% or more and less than 90%); K: Italian ryegrass, herbicidal effect grade (Italian ryegrass [19]; [26]): 4 (Herbicidal rate of 70% or more and less than 90%); L: windgrass, herbicidal effect grade (windgrass [20]; [26]): 4 (Herbicidal rate of 70% or more and less than 90%); M: velvetleaf, herbicidal effect grade (velvetleaf [21]; [26]): 5 (Herbicidal rate of 90% or more (almost completely withered)); N: redroot pigweed, herbicidal effect grade (redroot pigweed [22]; [26]): 1 (Herbicidal rate of 5% or more and less than 20%); O: lambsquarters, herbicidal effect grade (lambsquarters [23]; [26]): 0 (Herbicidal rate of 5% or less (almost no effect)); P: chickweed, herbicidal effect grade (chickweed [24]; [26]): 5 (Herbicidal rate of 90% or more (almost completely withered)); R: persian speedwell, herbicidal effect grade (persian speedwell [25]; [26]): 5 (Herbicidal rate of 90% or more (almost completely withered))
COc1ccccc1-c1sc2c(F)cccc2c1-c1c(O)c(C)nn(C)c1=O [4-003]	3 (Herbicidal rate of 40% or more and less than 70%)	0 (Herbicidal rate of 5% or less (almost no effect))	0 (Herbicidal rate of 5% or less (almost no effect))	3 (Herbicidal rate of 40% or more and less than 70%)	3 (Herbicidal rate of 40% or more and less than 70%)	3 (Herbicidal rate of 40% or more and less than 70%)	0 (Herbicidal rate of 5% or less (almost no effect))	0 (Herbicidal rate of 5% or less (almost no effect))	0 (Herbicidal rate of 5% or less (almost no effect))	0 (Herbicidal rate of 5% or less (almost no effect))	0 (Herbicidal rate of 5% or less (almost no effect))	0 (Herbicidal rate of 5% or less (almost no effect))	0 (Herbicidal rate of 5% or less (almost no effect))	0 (Herbicidal rate of 5% or less (almost no effect))	4 (Herbicidal rate of 70% or more and less than 90%)	3 (Herbicidal rate of 40% or more and less than 70%)	1 (Herbicidal rate of 5% or more and less than 20%)	1 (Herbicidal rate of 5% or more and less than 20%)	herbicidal effect on F: southern crabgrass (evaluation grade 0-5) (southern crabgrass [14]; [27]): 1 (Herbicidal rate of 5% or more and less than 20%); herbicidal effect on G: green foxtail (evaluation grade 0-5) (green foxtail [15]; [27]): 4 (Herbicidal rate of 70% or more and less than 90%); herbicidal effect on H: barnyard grass (evaluation grade 0-5) (barnyard grass [16]; [27]): 1 (Herbicidal rate of 5% or more and less than 20%); herbicidal effect on I: wild oat (evaluation grade 0-5) (wild oat [17]; [27]): 0 (Herbicidal rate of 5% or less (almost no effect)); herbicidal effect on J: blackgrass (evaluation grade 0-5) (blackgrass [18]; [27]): 4 (Herbicidal rate of 70% or more and less than 90%); herbicidal effect on K: Italian ryegrass (evaluation grade 0-5) (Italian ryegrass [19]; [27]): 4 (Herbicidal rate of 70% or more and less than 90%); herbicidal effect on L: windgrass (evaluation grade 0-5) (windgrass [20]; [27]): 3 (Herbicidal rate of 40% or more and less than 70%); herbicidal effect on M: velvetleaf (evaluation grade 0-5) (velvetleaf [21]; [27]): 3 (Herbicidal rate of 40% or more and less than 70%); herbicidal effect on N: redroot pigweed (evaluation grade 0-5) (redroot pigweed [22]; [27]): 3 (Herbicidal rate of 40% or more and less than 70%); herbicidal effect on O: lambsquarters (evaluation grade 0-5) (lambsquarters [23]; [27]): 3 (Herbicidal rate of 40% or more and less than 70%); herbicidal effect on P: chickweed (evaluation grade 0-5) (chickweed [24]; [27]): 5 (Herbicidal rate of 90% or more (almost completely withered)); herbicidal effect on R: persian speedwell (evaluation grade 0-5) (persian speedwell [25]; [27]): 5 (Herbicidal rate of 90% or more (almost completely withered))
